Assay results reported in patent publication US7273848B2, “Apolipoprotein A-I agonists and their use to treat dyslipidemic disorders” (priority 1997, dated 2007).
Non-standard residues stand in square brackets, D forms with d. Residues, ends and D or L forms follow the SMILES beside them. No end group written: not given here. Orn = NCCC[C@H](N)C(=O)O; Aib = CC(C)(N)C(=O)O

molecular target: T1, LCAT (purified from human plasma) (Homo sapiens, UniProt P04180); assay: LCAT activation assay; format: biochemical; details: LCAT activation as compared with native human ApoA-I (= 100%), equivalent masses
T1 construct: from tissue; host or cells: human plasma
T1 sequence (P04180 25-440): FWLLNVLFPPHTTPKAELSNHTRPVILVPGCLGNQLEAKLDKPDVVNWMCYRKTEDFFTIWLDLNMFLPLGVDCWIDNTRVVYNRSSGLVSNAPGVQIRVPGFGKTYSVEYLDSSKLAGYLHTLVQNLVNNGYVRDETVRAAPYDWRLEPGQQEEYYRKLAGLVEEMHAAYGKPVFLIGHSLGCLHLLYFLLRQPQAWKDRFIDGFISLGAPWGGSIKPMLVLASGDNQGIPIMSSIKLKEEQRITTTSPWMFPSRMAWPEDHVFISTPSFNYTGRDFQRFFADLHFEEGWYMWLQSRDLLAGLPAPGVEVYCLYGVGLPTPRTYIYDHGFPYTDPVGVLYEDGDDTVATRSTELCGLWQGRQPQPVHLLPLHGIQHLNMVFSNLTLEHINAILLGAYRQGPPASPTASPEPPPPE
Method in brief: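 Substrate SUVs of EPC or POPC with 14C-cholesterol (20:1 molar ratio), in 10 mM Tris, 0.14 M NaCl, 1 mM EDTA, pH 7.4, were preincubated with peptide or equal mass of plasma ApoA-I. Reaction started with human plasma LCAT; activation was measured as cholesterol-to-ester conversion relative to ApoA-I (100%).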

Compound | ACTIVITY (%) LCAT [%]
Ac-PVLDLFRELGEELKQKLK-NH2 [compound 227] | 0
CC(C)C[C@H](NC(=O)[C@H](C)NC(=O)[C@H](CCC(=O)O)NC(=O)[C@H](CC(C)C)NC(=O)C(C)(C)NC(=O)[C@H](CCC(=O)O)NC(=O)[C@H](CC(N)=O)NC(=O)[C@H](CC(C)C)NC(=O)[C@H](CCCCN)NC(=O)[C@H](CCC(=O)O)NC(=O)[C@H](Cc1c[nH]c2ccccc12)NC(=O)[C@H](Cc1ccccc1)NC(=O)[C@H](CCC(=O)O)NC(=O)[C@H](CC(=O)O)NC(=O)[C@H](CC(C)C)NC(=O)[C@@H](NC(=O)[C@@H]1CCCN1)C(C)C)C(=O)N[C@@H](CCCCN)C(=O)N[C@@H](CCC(N)=O)C(=O)N[C@@H](CCCCN)C(=O)N[C@@H](CC(C)C)C(=O)N[C@@H](CCCCN)C(=O)O [compound 73, PVLDEFWEKLNEXLEALKQKLK] (H-PVLDEFWEKLNE[Aib]LEALKQKLK-OH) | 10
CC(=O)N1CCC[C@H]1C(=O)N[C@H](C(=O)N[C@@H](CC(C)C)C(=O)N[C@@H](CC(=O)O)C(=O)N[C@@H](CC(C)C)C(=O)N[C@@H](Cc1ccccc1)C(=O)N[C@@H](CCCNC(=N)N)C(=O)N[C@@H](CCC(=O)O)C(=O)N[C@@H](CC(C)C)C(=O)N[C@@H](CC(C)C)C(=O)N[C@@H](CCC(=O)O)C(=O)N[C@@H](CCC(=O)O)C(=O)N[C@@H](CC(C)C)C(=O)N[C@@H](CCCN)C(=O)N[C@@H](CCC(N)=O)C(=O)N[C@@H](CCCN)C(=O)N[C@@H](CC(C)C)C(=O)N[C@@H](CCCN)C(N)=O)C(C)C [compound 211, PVLDLFRELLEELOQOLO] (Ac-PVLDLFRELLEEL[Orn]Q[Orn]L[Orn]-NH2) | 45
PVLDLFRELLNELLEGLKQKLK [compound 22] | 54
CSCC[C@H](NC(=O)C(C)(C)NC(=O)[C@H](CCC(=O)O)NC(=O)[C@H](CC(N)=O)NC(=O)[C@H](CC(C)C)NC(=O)[C@H](CCCCN)NC(=O)[C@H](CCC(=O)O)NC(=O)[C@H](CCCNC(=N)N)NC(=O)[C@H](Cc1ccccc1)NC(=O)[C@H](CCC(=O)O)NC(=O)[C@H](CC(=O)O)NC(=O)[C@H](CC(C)C)NC(=O)[C@@H](NC(=O)[C@@H]1CCCN1)C(C)C)C(=O)N[C@@H](CCC(=O)O)C(=O)N[C@@H](C)C(=O)N[C@@H](CC(C)C)C(=O)N[C@@H](CCCCN)C(=O)N[C@@H](CCC(N)=O)C(=O)N[C@@H](CCCCN)C(=O)N[C@@H](CC(C)C)C(=O)N[C@@H](CCCCN)C(=O)O [compound 114, PVLDEFREKLNEXMEALKQKLK] (H-PVLDEFREKLNE[Aib]MEALKQKLK-OH) | 0
Ac-AVLDLFRELLEELKQKLK-NH2 [compound 203] | 66
CC(C)C[C@H](NC(=O)[C@H](C)NC(=O)[C@H](CCCCN)NC(=O)[C@H](CC(C)C)NC(=O)C(C)(C)NC(=O)[C@H](CCC(=O)O)NC(=O)[C@H](CC(N)=O)NC(=O)[C@H](CC(C)C)NC(=O)[C@H](CCCCN)NC(=O)[C@H](CCC(=O)O)NC(=O)[C@H](CCCNC(=N)N)NC(=O)[C@H](Cc1ccccc1)NC(=O)[C@H](CCC(=O)O)NC(=O)[C@H](CC(=O)O)NC(=O)[C@H](CC(C)C)NC(=O)[C@@H](NC(=O)[C@@H]1CCCN1)C(C)C)C(=O)N[C@@H](CCCCN)C(=O)N[C@@H](CCC(N)=O)C(=O)N[C@@H](CCCCN)C(=O)N[C@@H](CC(C)C)C(=O)N[C@@H](CCCCN)C(=O)O [compound 93, PVLDEFREKLNEXLKALKQKLK] (H-PVLDEFREKLNE[Aib]LKALKQKLK-OH) | 5
PVLELFERLLDELLNALQKKLK [compound 86] | 7
PVLDLFERLLNELLEALQKKLK [compound 80] | 9
CC(C)C[C@H](NC(=O)[C@H](C)NC(=O)[C@H](CCC(=O)O)NC(=O)[C@H](CC(C)C)NC(=O)C(C)(C)NC(=O)[C@H](CCC(=O)O)NC(=O)[C@H](Cc1c[nH]c2ccccc12)NC(=O)[C@H](CC(C)C)NC(=O)[C@H](CCCCN)NC(=O)[C@H](CCC(=O)O)NC(=O)[C@H](CCCNC(=N)N)NC(=O)[C@H](Cc1ccccc1)NC(=O)[C@H](CCC(=O)O)NC(=O)[C@H](CC(=O)O)NC(=O)[C@H](CC(C)C)NC(=O)[C@@H](NC(=O)[C@@H]1CCCN1)C(C)C)C(=O)N[C@@H](CCCCN)C(=O)N[C@@H](CCC(N)=O)C(=O)N[C@@H](CCCCN)C(=O)N[C@@H](CC(C)C)C(=O)N[C@@H](CCCCN)C(=O)O [compound 43, PVLDEFREKLWEXLEALKQKLK] (H-PVLDEFREKLWE[Aib]LEALKQKLK-OH) | 25
Ac-PALELFKDLLEEFRQRLK-NH2 [compound 213] | 42
CC(C)C[C@H](NC(=O)[C@H](C)NC(=O)[C@H](CCC(=O)O)NC(=O)[C@H](CC(C)C)NC(=O)C(C)(C)NC(=O)[C@H](CCC(=O)O)NC(=O)[C@H](CC(N)=O)NC(=O)[C@H](CC(C)C)NC(=O)[C@H](CCCCN)NC(=O)[C@H](CCCCN)NC(=O)[C@H](CCCNC(=N)N)NC(=O)[C@H](Cc1ccccc1)NC(=O)[C@H](CCC(=O)O)NC(=O)[C@H](CC(=O)O)NC(=O)[C@H](CC(C)C)NC(=O)[C@@H](NC(=O)[C@@H]1CCCN1)C(C)C)C(=O)N[C@@H](CCCCN)C(=O)N[C@@H](CCC(N)=O)C(=O)N[C@@H](CCCCN)C(=O)N[C@@H](CC(C)C)C(=O)N[C@@H](CCCCN)C(=O)O [compound 69, PVLDEFRKKLNEXLEALKQKLK] (H-PVLDEFRKKLNE[Aib]LEALKQKLK-OH) | 13
CC(C)C[C@H](NC(=O)[C@H](C)NC(=O)[C@H](CC(=O)O)NC(=O)[C@H](CC(C)C)NC(=O)[C@H](CC(C)C)NC(=O)[C@H](CCCN)NC(=O)[C@H](CCC(=O)O)NC(=O)[C@H](CC(C)C)NC(=O)[C@H](CC(C)C)NC(=O)[C@H](CC(N)=O)NC(=O)[C@H](CCC(=O)O)NC(=O)[C@H](Cc1ccccc1)NC(=O)[C@H](CC(C)C)NC(=O)[C@H](CCC(=O)O)NC(=O)[C@H](CC(C)C)NC(=O)[C@@H](NC(=O)[C@@H]1CCCN1)C(C)C)C(=O)N[C@@H](CCC(N)=O)C(=O)N[C@@H](CCCN)C(=O)N[C@@H](CCCN)C(=O)N[C@@H](CC(C)C)C(=O)N[C@@H](CCCN)C(=O)O [compound 170, PVLELFENLLEOLLDALQOOLO] (H-PVLELFENLLE[Orn]LLDALQ[Orn][Orn]L[Orn]-OH) | 17
CC(C)C[C@H](NC(=O)[C@H](C)NC(=O)[C@H](CCC(=O)O)NC(=O)[C@H](CC(C)C)NC(=O)[C@H](CC(C)C)NC(=O)[C@H](CCC(=O)O)NC(=O)[C@H](CC(N)=O)NC(=O)[C@H](CC(C)C)NC(=O)[C@H](CC(C)C)NC(=O)[C@H](CCC(=O)O)NC(=O)[C@H](CCCNC(=N)N)NC(=O)[C@H](Cc1ccccc1)NC(=O)[C@H](CC(C)C)NC(=O)[C@H](CC(=O)O)NC(=O)[C@H](CC(C)C)NC(=O)[C@@H](NC(=O)C(C)(C)N)C(C)C)C(=O)N[C@@H](CCCCN)C(=O)N[C@@H](CCC(N)=O)C(=O)N[C@@H](CCCCN)C(=O)N[C@@H](CC(C)C)C(=O)N[C@@H](CCCCN)C(=O)O [compound 32, XVLDLFRELLNELLEALKQKLK] (H-[Aib]VLDLFRELLNELLEALKQKLK-OH) | 33
PVLDLFRELLNELLEALKQKKK [compound 56] | 18
PVLDLFREGWEELKQKLK [compound 224] | 8
PVLDLFRELLNELLE [compound 97] | 4
CC(C)C[C@H](NC(=O)[C@H](C)NC(=O)[C@H](CCC(=O)O)NC(=O)[C@H](CC(C)C)NC(=O)C(C)(C)NC(=O)[C@H](CCC(=O)O)NC(=O)[C@H](CC(N)=O)NC(=O)[C@H](CC(C)C)NC(=O)[C@H](CCCCN)NC(=O)[C@H](CCC(=O)O)NC(=O)[C@H](CCCNC(=N)N)NC(=O)[C@H](Cc1ccccc1)NC(=O)[C@H](CCC(=O)O)NC(=O)[C@H](CC(=O)O)NC(=O)[C@H](CC(C)C)NC(=O)[C@H](CCC(=O)O)NC(=O)[C@@H]1CCCN1)C(=O)N[C@@H](CCCCN)C(=O)N[C@@H](CCC(N)=O)C(=O)N[C@@H](CCCCN)C(=O)N[C@@H](CC(C)C)C(=O)N[C@@H](CCCCN)C(=O)O [compound 117, PELDEFREKLNEXLEALKQKLK] (H-PELDEFREKLNE[Aib]LEALKQKLK-OH) | 0
CC(C)C[C@H](NC(=O)[C@H](C)NC(=O)[C@H](CCC(=O)O)NC(=O)[C@H](CC(C)C)NC(=O)C(C)(C)NC(=O)[C@H](CCC(=O)O)NC(=O)[C@H](CCCCN)NC(=O)[C@H](CC(C)C)NC(=O)[C@H](CC(C)C)NC(=O)[C@H](CCC(=O)O)NC(=O)[C@H](CCCNC(=N)N)NC(=O)[C@H](Cc1ccccc1)NC(=O)[C@H](CCC(=O)O)NC(=O)[C@H](CC(=O)O)NC(=O)[C@H](CC(C)C)NC(=O)[C@@H](NC(=O)[C@@H]1CCCN1)C(C)C)C(=O)N[C@@H](CCCCN)C(=O)N[C@@H](CCC(N)=O)C(=O)N[C@@H](CCCCN)C(=O)N[C@@H](CC(C)C)C(=O)N[C@@H](CCCCN)C(=O)O [compound 68, PVLDEFRELLKEXLEALKQKLK] (H-PVLDEFRELLKE[Aib]LEALKQKLK-OH) | 14
